Results published in patent US5352770A, “Porcine derived novel physiologically active peptide” (priority 1990, dated 1994).
Positions of bridges follow the written chain, without caps; N, C: chain ends. No end group written: not given here.

Assays:
chick rectum = assay: Chick rectum relaxant activity; details: fold activity versus α-hANP
Method: Chick rectum relaxant activity was measured in accordance with the method of Curtie et al. (Cuttle et al., Nature, 221, 1-13, 1983).

Male SD rats = assay: Natriuretic and hypotensive actions in anesthetized rats after intravenous administration; format: in vivo, rat; details: for Blood pressure drop / Cl- excretion / K+ excretion / Na+ excretion / Urine excretion: change in 15 min after administration vs before, mean±S.D., 4 animals
Method: Male SD rats (body weight: 230-290 g) were anesthetized by intraperitoneal injection with 65 mg/kg of pentobarbital and fitted with a tracheotomy tube (PE-240 of Clay Adams) in order to insure the respiratory tract. A cannula (PE-50) for blood pressure measurement was inserted into the hip artery and a Ringer's solution was injected at a steady rate of 1.8 ml/hr through a cannula (PE-10) inserted into the hip vein. A urinary sample was taken into a test tube through a cystic cannula in the form of a Silastic tube (i.d. 0.02 inch; o.d. 0.037 inch; Dow Corning). Urinary samples were taken both for 15 minutes before the administration of the test substance and until 15 minutes after the administration at 5 min interval, followed by subsequent sampling at predetermined time intervals. By comparing the amount of each sample with the concentration of an electrolyte in it, as well as by measuring the blood pressure changes, the actions of the test substance were evaluated.
The test substance CNP was dissolved in a predetermined amount in 0.1 N acetic acid and thereafter neutralized with a 1/10 volume of 1.3 M Tris solution. The sample was diluted with 50 μl of sterilized physiological saline and administered via the cervical vein.
Data are shown in terms of mean±S.D., as obtained from each group of 4 animals, of the change that occurred in the 15-min period from the administration of the test substance, as compared to the state before the administration.

VSMC of rats = assay: Cell growth suppressing activity ([3H]thymidine uptake); format: cell-based, rat; details: cultured vascular smooth muscle cell line
Method: Cell growth suppressing ability was evaluated in accordance with the method of Kariya et al. (Atherosclerosis, 80, 143-147, 1990) by measuring the uptake of ^3 H thymidine into cells as an indicator of DNA synthesis activity using VSMC of rats. Cells tuned to a stationary phase were incubated in 1% serum at 37° C. for 14 h together with various concentrations of α-hANP or CNP; following the addition of 37 KBq/ml [^3 H]thymidine, the incubation was continued for another 4 h. The radioactivity of [^3 H] thymidine incorporated into the cells was measured. The values of measurement were such that the radioactivity of [^3 H] thymidine for the case where only 1% serum was added in the absence of peptide was taken as 100%, with the percent suppression due to the peptide at the respective concentrations being accordingly calculated.

[1] = tested on: cultured vascular smooth muscle cell line; assay: cGMP production in cultured vascular smooth muscle cell line; format: cell-based
rats = details: cited from earlier work

Row | Molecule | Chick rectum relaxant activity relative to α-hANP (chick rectum) | Blood pressure drop (Male SD rats; CNP dose 12 nmol/kg i.v.) | Cl- excretion (Male SD rats; CNP dose 12 nmol/kg i.v.) | K+ excretion (Male SD rats; CNP dose 12 nmol/kg i.v.) | Na+ excretion (Male SD rats; CNP dose 12 nmol/kg i.v.) | Urine excretion (Male SD rats; CNP dose 12 nmol/kg i.v.) | Blood pressure drop (Male SD rats; CNP dose 80 nmol/kg i.v.) | Cl- excretion (Male SD rats; CNP dose 80 nmol/kg i.v.) | K+ excretion (Male SD rats; CNP dose 80 nmol/kg i.v.) | Na+ excretion (Male SD rats; CNP dose 80 nmol/kg i.v.) | Urine excretion (Male SD rats; CNP dose 80 nmol/kg i.v.) | Blood pressure drop (Male SD rats; CNP dose 160 nmol/kg i.v.) | Cl- excretion (Male SD rats; CNP dose 160 nmol/kg i.v.) | K+ excretion (Male SD rats; CNP dose 160 nmol/kg i.v.) | Na+ excretion (Male SD rats; CNP dose 160 nmol/kg i.v.) | Urine excretion (Male SD rats; CNP dose 160 nmol/kg i.v.) | Natriuretic and hypotensive actions (in words) (Male SD rats; rats, intravenous, 12-160 nmol/kg) | Growth inhibiting action on vascular smooth muscle cells (in words) (VSMC of rats) | Activity for promoting the production of cGMP (in words) [1] | Natriuretic and hypotensive actions compared with α-hANP (in words) (rats)
1 | CC[C@H](C)[C@@H]1NC(=O)[C@H](CCCNC(=N)N)NC(=O)[C@H](CC(=O)O)NC(=O)[C@H](CC(C)C)NC(=O)[C@H](CCCCN)NC(=O)[C@H](CC(C)C)NC(=O)CNC(=O)[C@H](Cc2ccccc2)NC(=O)[C@@H](NC(=O)CNC(=O)[C@H](CCCCN)NC(=O)[C@H](CO)NC(=O)[C@H](CC(C)C)NC(=O)CN)CSSC[C@@H](C(=O)O)NC(=O)CNC(=O)[C@H](CC(C)C)NC(=O)CNC(=O)[C@H](CO)NC(=O)[C@H](CCSC)NC(=O)[C@H](CO)NC(=O)CNC1=O [CNP] | 3 - 4 times | 6.7 ± 1.7 mmHg | 228 ± 32% | 220 ± 43% | 192 ± 28% | 229 ± 38% | 16.7 ± 4.2 mmHg | 301 ± 83% | 167 ± 29% | 286 ± 125% | 251 ± 62% | 14.2 ± 5.2 mmHg | 400 ± 45% | 238 ± 46% | 371 ± 69% | 421 ± 40% | those actions increased in a dose-dependent manner | had a growth inhibiting action | found to have an activity for promoting the production of cyclic guanosine monophosphate | 
2 | pBNP: porcine-derived brain natriuretic peptide, single-stranded peptide composed of 26 amino acids having a single S--S bond (DSGCFGRRLDRIGSLSGLGCNVLRRY; disulfide 4-20 (inferred); UniProt P07634 106-131, looked up) |  |  |  |  |  |  |  |  |  |  |  |  |  |  |  |  |  |  |  | comparable levels of natriuretic and hypotensive actions to α-hANP
